# What was measured:
# topoisomerase = conditions: cited from earlier work
# BALL-1 cells [1] = test: Cell cycle analysis by flow cytometry; type: cell-based, human; conditions: 0.5 μM
# Procedure: Specifically, BALL-1 cells were treated with 3EZ,20Ac-ingenol at a final concentration of 0.5 μM for 6, 12, 24, and 48 hours, and then a phase of a cell cycle was analyzed using flow cytometry. In addition, cells that were not treated with 3EZ,20Ac-ingenol were used as controls.
# cyclin D1 = test: Western blotting, cyclin D1, JeKo-1 cells; type: cell-based, human; conditions: 0.5 μM; for abundance of cyclin D1: cytoplasm fraction
# Procedure: (§1) Specifically, first, JeKo-1 cells were cultured for 0 (control), 12, 24, and 48 hours in the presence of 0.5 μM of 3EZ,20Ac-ingenol. In addition, Panc-1 cells were cultured for 0 (control), 12, 24, and 48 hours in the presence of 3 μM of 3EZ,20Ac-ingenol.
# Subsequently, abundances of cyclin D1 in entire cell fractions, nuclear fractions, and cytoplasm fractions of the respective cells were analyzed by Western blotting.
# Akt protein = test: Western blotting, total amount of Akt, Panc-1 cells; type: cell-based, human; conditions: 3 μM
# Procedure: as §1
# Subsequently, by Western blotting using an anti-Akt antibody (Cell Signaling Technology) and an anti-p-Akt (Ser^473) antibody (Cell Signaling Technology), abundances of total amounts of Akt protein and p-Akt in the entire cell fractions, nuclear fractions, and cytoplasm fractions of the respective cells were analyzed. Furthermore, as a loading control, actin protein was detected using an anti-actin antibody (Sigma).
# TKG0377 cells = test: Cell Death Detection ELISA, TKG0377; type: cell-based, human; conditions: 0.5 μM, 72 hours
# Procedure: (§2) The induction of apoptosis by 3EZ,20Ac-ingenol treatment was examined by detecting histone-binding DNA fragmentation in the cytoplasm using a Cell Death Detection ELISA kit (Roche Applied Science).
# (§3) Specifically, BALL-1 cells, TKG0210 cells, and TKG0377 cells were inserted into tubes at 5×10^4 cells/well/200 μL, and incubated for 6, 12, 24, 48, and 72 hours in the presence of 3EZ,20Ac-ingenol at a final concentration of 0.5 μM. Subsequently, the respective cells were lysed in a lysis buffer. Subsequently, the supernatant of cell debris of the respective cells was collected and transferred to an ELISA plate, and an absorbance at a wavelength of 405 nm was measured to measure the induction of apoptosis.
# BALL-1 cells [2] = test: MTT assay, BALL-1 cells with siRNA against ATR; type: cell-based, human; conditions: 0.5 μM, 48 hours
# Procedure: An effect of ATR activity on cell proliferation inhibition was examined. In the same manner as in Experimental Example 9, siRNA against ATR was introduced into BALL-1 cells, and the cells were incubated for 48 hours. Subsequently, a cell medium was replaced with a medium containing 3EZ,20Ac-ingenol at a final concentration of 0.5 μM, and culturing was performed for 48 hours.
# For comparison, BALL-1 cells cultured for 48 hours in a medium containing 3EZ,20Ac-ingenol at a final concentration of 0.5 μM without introduction of siRNA were used. In addition, as controls, cells into which control siRNA (“ON-TARGET Plus Nontargeting pool,” GE Dharmacon) was introduced and which were then cultured in the absence of 3EZ,20Ac-ingenol were used.
# BALL-1 cells [3] = test: Cell Death Detection ELISA (histone-binding DNA fragmentation), BALL-1; type: cell-based, human; conditions: 0.5 μM, 72 hours
# Procedure: as §2, §3
# ATR protein = test: Western blotting, ATR protein, Panc-1 cells; type: cell-based, human; conditions: 3 μM
# Procedure: Specifically, JeKo-1 cells were cultured for 0 (control), 12, 24, and 48 hours in the presence of 0.5 μM of 3EZ,20Ac-ingenol. In addition, Panc-1 cells were cultured for 0 (control), 12, 24, and 48 hours in the presence of 3 μM of 3EZ,20Ac-ingenol.
# Subsequently, ATR protein, p53 protein, and phosphorylated p53 (hereinafter also referred to as “p-p53”) protein in the respective cells were respectively detected using an anti-ATR antibody (Cell Signaling Technology), an anti-p53 antibody (Santa Cruz), and an anti-p-p53 antibody (Cell Signaling Technology). Furthermore, as a loading control, actin protein was detected using an anti-actin antibody (Sigma).
# [4] = tested on: phosphorylated Akt (Ser^473); test: Western blotting, p-Akt (Ser473), TKG0210 cells; type: cell-based, human; conditions: 0.5 μM
# Procedure: The effect of 3EZ,20Ac-ingenol treatment on a PI3K/Akt signaling pathway was examined. Specifically, BALL-1 cells, TKG0210 cells, and TKG0377 cells were cultured for 48 hours in the presence of 3EZ,20Ac-ingenol at a final concentration of 0.5 μM, and by Western blotting using an anti-p-Akt (Ser^473) antibody (Cell Signaling Technology), phosphorylation of the 473th serine residue of an Akt protein in respective fractions of the entire cell, a nucleus, and a cytoplasm was analyzed. In addition, cells cultured in the absence of 3EZ,20Ac-ingenol were used as controls.
# BALL-1 cells, TKG0210 cells, and TKG0377 cells were cultured for 24 and 48 hours in the presence of 3EZ,20Ac-ingenol at a final concentration of 0.5 μM, and abundances of p-Akt in the nuclear fraction and the cytoplasm fraction were analyzed by Western blotting. In addition, respective cells cultured in the absence of 3FZ,20Ac-ingenol were used as controls.
# GSK-3β = test: Western blotting, GSK-3β, JeKo-1 cells; type: cell-based, human; conditions: 0.5 μM, entire cell, 24 hours
# Procedure: as §1
# Subsequently, abundances of GSK-3β and p-GSK-3β in the respective cells were analyzed by Western blotting using an anti-GSK-3β antibody (Cell Signaling Technology) and an anti-p-GSK-3β (Ser^9) antibody (Cell Signaling Technology). Furthermore, as a loading control, actin protein was detected using an anti-actin antibody (Sigma).
smiles,measurement,setting,value
"CCCCC/C=C\C=C\C(=O)O[C@H]1C(C)=C[C@]23C(=O)[C@@H](C=C(COC(C)=O)[C@@H](O)[C@]12O)[C@H]1[C@@H](C[C@H]3C)C1(C)C [3EZ,20Ac-ingenol, 3-O-(2′E,4′Z-decadienoyl)-20-O-acetylingenol]",DNA cleavage,topoisomerase,does not cause DNA cleavage
same,proportion of S-phase cells,BALL-1 cells [1]; after 6 hours,68%
same,proportion of G2/M-phase cells,BALL-1 cells [1]; after 12 hours and 24 hours,about 3%
same,proportion of S-phase cells,BALL-1 cells [1]; after 12 hours and 24 hours,75%
same,proportion of G1-phase cells,BALL-1 cells [1]; after 24 hours,about 19%
same,abundance of cyclin D1,cyclin D1; 12 to 48 hours,an increase in abundance of cyclin D1 was recognized
same,abundance of cyclin D1,cyclin D1; thereafter,a decrease was recognized thereafter
same,expression level of cyclin D1,"cyclin D1; entire cell fraction, 12 to 48 hours",a decrease in expression level of cyclin D1 was observed
same,expression level of cyclin D1,"cyclin D1; nuclear fraction, 12 to 48 hours",a slight decrease in expression level of cyclin D1 was observed
same,abundance of total amount of Akt,"Akt protein; entire cell fraction, 12 hours and 24 hours",a temporary increase in abundances of both p-Akt and total amount of Akt was recognized
same,abundance of total amount of Akt,"Akt protein; entire cell fraction, 48 hours",a decrease was observed again
same,abundance of total amount of Akt,"Akt protein; nuclear fraction and cytoplasm fraction, 12 to 24 hours",an increase in abundance of both p-Akt and total amount of Akt was recognized
same,abundance of total amount of Akt,"Akt protein; nuclear fraction and cytoplasm fraction, 48 hours",a decrease was observed 48 hours after the treatment
same,amount of fragmented DNA (apoptosis),TKG0377 cells,almost no fragmented DNA was detected
same,reduction of cell proliferation inhibition by knockdown of ATR,BALL-1 cells [2],about 20%
same,amount of fragmented DNA (apoptosis),BALL-1 cells [3],noticeably increased the amount of fragmented DNA
same,expression level of ATR protein,"ATR protein; 12 hours, further increase 24 hours after treatment",an increase in expression level of ATR protein was recognized
same,expression level of ATR protein,ATR protein; 48 hours after treatment,a decrease was recognized
same,abundance of p-Akt,"[4]; 24 and 48 hours, cytoplasm fraction and nuclear fraction",no decrease in abundance of p-Akt was observed
same,abundance of p-Akt,"[4]; 48 hours, cytoplasm fraction",remained almost unchanged
same,abundance of p-Akt,"[4]; 48 hours, entire cell",a decrease in abundance of phosphorylated Akt
same,abundance of p-Akt,"[4]; 48 hours, nuclear fraction",remained almost unchanged
same,GSK-3β (an active type),GSK-3β,an increase in GSK-3β was observed
